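The concentration for 50% growth inhibition is given as GI50. TGI: total growth inhibition.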
How the values were obtained:
Test in all cases: growth of human tumour cells (NCI), 384-well format
RPMI-8226 leukemia = test system: RPMI-8226 leukemia
MCF7 breast = test system: MCF7 breast
MDA-MB-231 breast = test system: MDA-MB-231 breast
TK-10 renal = test system: TK-10 renal
SR leukemia = test system: SR leukemia
MOLT-4 leukemia = test system: MOLT-4 leukemia
OVCAR-3 ovarian = test system: OVCAR-3 ovarian
SK-MEL-28 melanoma = test system: SK-MEL-28 melanoma
HT29 colon = test system: HT29 colon
SN12C renal = test system: SN12C renal
MDA-MB-435 melanoma = test system: MDA-MB-435 melanoma
OVCAR-8 ovarian = test system: OVCAR-8 ovarian
HL-60(TB) leukemia = test system: HL-60(TB) leukemia
HS 578T breast = test system: HS 578T breast
BT-549 breast = test system: BT-549 breast
NCI/ADR-RES ovarian = test system: NCI/ADR-RES ovarian
KM12 colon = test system: KM12 colon
SF-295 CNS = test system: SF-295 CNS
UO-31 renal = test system: UO-31 renal
NCI-H460 NSCLC = test system: NCI-H460 NSCLC
U251 glioblastoma = test system: U251 glioblastoma
PC-3 prostate = test system: PC-3 prostate
RXF 393 renal = test system: RXF 393 renal
NCI-H322M lung = test system: NCI-H322M lung
LOX IMVI melanoma = test system: LOX IMVI melanoma
NCI-H23 lung = test system: NCI-H23 lung
OVCAR-4 ovarian = test system: OVCAR-4 ovarian
SNB-75 CNS = test system: SNB-75 CNS
A498 renal = test system: A498 renal
A549 NSCLC = test system: A549 NSCLC
MDA-MB-468 breast = test system: MDA-MB-468 breast
HCT-15 colon = test system: HCT-15 colon
HCC-2998 colon = test system: HCC-2998 colon
M14 melanoma = test system: M14 melanoma
EKVX NSCLC = test system: EKVX NSCLC
COLO 205 colon = test system: COLO 205 colon
SF-268 CNS = test system: SF-268 CNS
CCRF-CEM leukemia = test system: CCRF-CEM leukemia
NCI-H522 lung = test system: NCI-H522 lung
HOP-62 NSCLC = test system: HOP-62 NSCLC
SK-OV-3 ovarian = test system: SK-OV-3 ovarian
MALME-3M melanoma = test system: MALME-3M melanoma
SK-MEL-5 melanoma = test system: SK-MEL-5 melanoma
ACHN renal = test system: ACHN renal
IGROV1 ovarian = test system: IGROV1 ovarian
K-562 leukemia = test system: K-562 leukemia
SF-539 CNS = test system: SF-539 CNS
T-47D breast = test system: T-47D breast
NCI-H226 lung = test system: NCI-H226 lung
DU-145 prostate = test system: DU-145 prostate
786-0 renal = test system: 786-0 renal
HOP-92 NSCLC = test system: HOP-92 NSCLC
UACC-62 melanoma = test system: UACC-62 melanoma
OVCAR-5 ovarian = test system: OVCAR-5 ovarian
SNB-19 CNS = test system: SNB-19 CNS
CAKI-1 renal = test system: CAKI-1 renal
SW-620 colon = test system: SW-620 colon
UACC-257 melanoma = test system: UACC-257 melanoma

COc1ccc(Br)cc1NC(=O)Nc1cccc2c1ccn2Cc1ccnc(N)c1
GI50 (RPMI-8226 leukemia): 2.35 µM
TGI (RPMI-8226 leukemia): 6.39 µM
GI50 (MCF7 breast): 5.26 µM
TGI (MCF7 breast): 18.3 µM
GI50 (MDA-MB-231 breast): 13.2 µM
TGI (MDA-MB-231 breast): 26.1 µM
GI50 (TK-10 renal): 6.85 µM
TGI (TK-10 renal): 20 µM
GI50 (SR leukemia): 1.75 µM
TGI (SR leukemia): 3.72 µM
GI50 (MOLT-4 leukemia): 1.56 µM
TGI (MOLT-4 leukemia): 3.55 µM
GI50 (OVCAR-3 ovarian): 10 µM
TGI (OVCAR-3 ovarian): 21.7 µM
GI50 (SK-MEL-28 melanoma): 11.5 µM
TGI (SK-MEL-28 melanoma): 23.7 µM
GI50 (HT29 colon): 2.01 µM
TGI (HT29 colon): 4.13 µM
GI50 (SN12C renal): 6.14 µM
TGI (SN12C renal): 19.2 µM
GI50 (MDA-MB-435 melanoma): 10.9 µM
TGI (MDA-MB-435 melanoma): 23 µM
GI50 (OVCAR-8 ovarian): 11.9 µM
TGI (OVCAR-8 ovarian): 24.5 µM
GI50 (HL-60(TB) leukemia): 1.87 µM
TGI (HL-60(TB) leukemia): 4.64 µM
GI50 (HS 578T breast): 6.06 µM
TGI (HS 578T breast): 17.8 µM
GI50 (BT-549 breast): 9.64 µM
TGI (BT-549 breast): 21.5 µM
GI50 (NCI/ADR-RES ovarian): 10.5 µM
TGI (NCI/ADR-RES ovarian): 23 µM
GI50 (KM12 colon): 2.54 µM
TGI (KM12 colon): 5.81 µM
GI50 (SF-295 CNS): 2.82 µM
TGI (SF-295 CNS): 8.47 µM
GI50 (UO-31 renal): 12.2 µM
TGI (UO-31 renal): 24.9 µM
GI50 (NCI-H460 NSCLC): 3.15 µM
TGI (NCI-H460 NSCLC): 9.4 µM
GI50 (U251 glioblastoma): 6.92 µM
TGI (U251 glioblastoma): 19.5 µM
GI50 (PC-3 prostate): 6.67 µM
TGI (PC-3 prostate): 18.9 µM
GI50 (RXF 393 renal): 6.56 µM
TGI (RXF 393 renal): 18.7 µM
GI50 (NCI-H322M lung): 8.46 µM
TGI (NCI-H322M lung): 21.4 µM
GI50 (LOX IMVI melanoma): 4.85 µM
TGI (LOX IMVI melanoma): 15.2 µM
GI50 (NCI-H23 lung): 9.53 µM
TGI (NCI-H23 lung): 21.6 µM
GI50 (OVCAR-4 ovarian): 3.72 µM
TGI (OVCAR-4 ovarian): 9.86 µM
GI50 (SNB-75 CNS): 14.1 µM
TGI (SNB-75 CNS): 29.7 µM
GI50 (A498 renal): 3.56 µM
TGI (A498 renal): 13.5 µM
GI50 (A549 NSCLC): 7.56 µM
TGI (A549 NSCLC): 20.2 µM
GI50 (MDA-MB-468 breast): 2.81 µM
TGI (MDA-MB-468 breast): 5.07 µM
GI50 (HCT-15 colon): 2.02 µM
TGI (HCT-15 colon): 3.63 µM
GI50 (HCC-2998 colon): 3.51 µM
TGI (HCC-2998 colon): 8.43 µM
GI50 (M14 melanoma): 6.29 µM
TGI (M14 melanoma): 18.1 µM
GI50 (EKVX NSCLC): 8.67 µM
TGI (EKVX NSCLC): 22 µM
GI50 (COLO 205 colon): 5.82 µM
TGI (COLO 205 colon): 18.2 µM
GI50 (SF-268 CNS): 9.97 µM
TGI (SF-268 CNS): 21.9 µM
GI50 (CCRF-CEM leukemia): 2.49 µM
TGI (CCRF-CEM leukemia): 5.33 µM
GI50 (NCI-H522 lung): 3.51 µM
TGI (NCI-H522 lung): 10.6 µM
GI50 (HOP-62 NSCLC): 11.7 µM
TGI (HOP-62 NSCLC): 24.1 µM
GI50 (SK-OV-3 ovarian): 8.96 µM
TGI (SK-OV-3 ovarian): 21.1 µM
GI50 (MALME-3M melanoma): 7.13 µM
TGI (MALME-3M melanoma): 19.9 µM
GI50 (SK-MEL-5 melanoma): 4.55 µM
TGI (SK-MEL-5 melanoma): 15.4 µM
GI50 (ACHN renal): 7.08 µM
TGI (ACHN renal): 20.3 µM
GI50 (IGROV1 ovarian): 11.3 µM
TGI (IGROV1 ovarian): 23.6 µM
GI50 (K-562 leukemia): 1.47 µM
TGI (K-562 leukemia): 2.81 µM
GI50 (SF-539 CNS): 4.44 µM
TGI (SF-539 CNS): 18 µM
GI50 (T-47D breast): 3.77 µM
TGI (T-47D breast): 11.8 µM
GI50 (NCI-H226 lung): 5.77 µM
TGI (NCI-H226 lung): 17.9 µM
GI50 (DU-145 prostate): 12.9 µM
TGI (DU-145 prostate): 27.9 µM
GI50 ([…]-0 renal): 4.23 µM
TGI (786-0 renal): 16.6 µM
GI50 (HOP-92 NSCLC): 5.73 µM
TGI (HOP-92 NSCLC): 18.3 µM
GI50 (UACC-62 melanoma): 5.8 µM
TGI (UACC-62 melanoma): 18.6 µM
GI50 (OVCAR-5 ovarian): 11.8 µM
TGI (OVCAR-5 ovarian): 24.6 µM
GI50 (SNB-19 CNS): 9.24 µM
TGI (SNB-19 CNS): 21.7 µM
GI50 (CAKI-1 renal): 10.7 µM
TGI (CAKI-1 renal): 22.8 µM
GI50 (SW-620 colon): 12.4 µM
TGI (SW-620 colon): 25 µM
GI50 (UACC-257 melanoma): 4.42 µM
TGI (UACC-257 melanoma): 14.2 µM

From PubChem BioAssay (NCI)
